Test system: human leukocytes (granulocytes; lymphocytes and monocytes)
Experiment: Distribution of Tc-99m labeled peptides in human blood (Percoll density gradient)
Type: cell-based
Conditions: incubation 30 minutes
Excerpt: In order to confirm clinical effectiveness of the peptide of the present invention in human, binding affinities to leukocytes of two types of peptides of the present invention were examined by using human blood. The peptide 3 and the peptide 6 labeled with Tc-99m in Example 2 were separated into unlabeled peptides and labeled peptides, and purified by reversed phase HPLC under the same conditions as of HPLC in Example 2. […]
The conventionally known peptides, Tc-99m-peptide 11 and Tc-99m-peptide 12, were prepared. Each of the peptide 11 and the peptide 12 was dissolved in dimethylformamide to prepare a solution having the concentration of 0.1 mg/500 μl. A solution of SnCl2/10 mM hydrochloric acid (5 mg/10 ml) 50 μl was added to a tartaric acid/PBS solution (5 mg/200 μl), and the peptide solution was added thereto. Then ^99mTcO4^− solution (2738 MBq/ml) 0.25 μl was infused immediately thereafter and shaken for several seconds to perform labeling reaction at 120° C. for 10 minutes. Final concentration was about 855.6 MBq/125 mg/ml. Purification and measurement of radiochemical purity were performed by using preparative HPLC. Analysis was performed under the same conditions as in Example 2, i.e. gradient: 20%→50% (0.1% TFA acetonitrile/0.1% TFA water); 0→20 minutes. Radioactivity concentration after the purification was 287–311 MBq/ml.
Subsequently, a Percoll density gradient solution was prepared based on the method described in Example 3.
Blood, 20–30 ml, was collected from adult volunteers, 40 years old or less. The Tc-99m labeled peptides, 30 μl (111 MBq/ml, 1.8×10^−11 mol/ml as Tc-peptide) each, were added thereto and incubated for 30 minutes. The blood sample 2–3 ml was layered over carefully to the prepared Percoll density gradient solution. After centrifugation at 2000 rpm (800×g) for 15 minutes, the tube was frozen and each fraction was cut off by using a cutter, then the radioactivity of each fraction was measured using Auto-Well Gamma Counter to determine the radioactivity distribution of Tc-99m-labeled peptides in the blood components.

Substance: Tc-99m-glucoheptonic acid
- radioactivity distributed in the plasma fraction: 95.39%
- radioactivity distribution in the granulocyte fraction: 1.11 % of the radioactivity in the whole blood
- radioactivity distribution in the lymphocyte and monocyte fraction: 2.52 % of the radioactivity in the whole blood
